Test [1] has as its target T1, NLRP3 (Homo sapiens, UniProt Q96P20). The experiment in a line: Human whole blood IL-1β release assay. The format is cell-based. Set-up: Plate out 80 μl of whole blood containing 1 μg/ml of LPS in 96-well, clear bottom cell culture plate; from tissue; host or cells: human whole blood from healthy donors. To be noted: LPS 1 μg/ml, compound 3 hrs, nigericin 10 μM 1 hr, IL-1β by AlphaLisa, read-out: HWB IC50. How it is done:
For systemic delivery, the ability to inhibit NLRP3 when the compounds are present within the bloodstream is of great importance. For this reason, the NLRP3 inhibitory activity of a number of compounds in human whole blood was investigated in accordance with the following protocol.
Human whole blood in Li-heparin tubes was obtained from healthy donors from a volunteer donor panel. • 1. Plate out 80 μl of whole blood containing 1 μg/ml of LPS in 96-well, clear bottom cell culture plate (Corning #3585) • 2. Add 10 μl compound (8 points half-log dilution with 10 μM top dose) or vehicle (DMSO 0.1% FAC) to the appropriate wells • 3. Incubate for 3 hrs at 37° C., 5% CO2 • 4. Add 10 μl nigericin (Sigma #N7143) (10 μM FAC) to all wells • 5. Incubate for 1 hr at 37° C., 5% CO2 • 6. At the end of the incubation period, spin plates at 300×g for 5 mins to pellet cells and remove […] of supernatant and add to 96-well v-bottom plates for IL-1β analysis (note: these plates containing the supernatants can be stored at −80° C. to be analysed at a later date) • 7. IL-1β was measured according to the manufacturer protocol (Perkin Elmer-AlphaLisa IL-1 Kit AL220F-5000) • 8. IC50 data is fitted to a non-linear regression equation (log inhibitor vs response-variable slope 4-parameters)
Background: Bead proximity is the source of the signal in Alpha formats.

Test [2] deals with T1, NLRP3. The experiment in a line: THP-1 cells pyroptosis assay. Set-up: Seed THP-1 cells (25,000 cells/well) containing 1.0 μg/ml LPS in 40 μl of RPMI medium; host or cells: THP-1 cells. Format: cell-based. The note with it: LPS 1 μg/ml, compound 3 hrs, nigericin 5 μM 1 hr, resazurin readout. How it is done: THP-1 cells (ATCC #TIB-202) were grown in RPMI containing L-glutamine (Gibco #11835) supplemented with 1 mM sodium pyruvate (Sigma #S8636) and penicillin (100 units/ml)/streptomycin (0.1 mg/ml) (Sigma #P4333) in 10% Fetal Bovine Serum (FBS) (Sigma #F0804). The cells were routinely passaged and grown to confluency (˜10^6 cells/ml). On the day of the experiment, THP-1 cells were harvested and resuspended into RPMI medium (without FBS). The cells were then counted and viability ([…]) checked by Trypan blue (Sigma #T8154). Appropriate dilutions were made to give a concentration of 625,000 cells/ml. To this diluted cell solution was added LPS (Sigma #L4524) to give a 1 μg/ml Final Assay Concentration (FAC). 40 μl of the final preparation was aliquoted into each well of a 96-well plate. The plate thus prepared was used for compound screening.
The following method step-by-step assay was followed for compound screening. • 1. Seed THP-1 cells (25,000 cells/well) containing 1.0 μg/ml LPS in 40 μl of RPMI medium (without FBS) in 96-well, black walled, clear bottom cell culture plates coated with poly-D-lysine (VWR #734-0317) • 2. Add 5 μl compound (8 points half-log dilution, with 10 μM top dose) or vehicle (DMSO 0.1% FAC) to the appropriate wells • 3. Incubate for 3 hrs at 37° C., 5% CO2 • 4. Add 5 μl nigericin (Sigma #N7143) (FAC 5 μM) to all wells • 5. Incubate for 1 hr at 37° C., 5% CO2 • 6. At the end of the incubation period, spin plates at 300×g for 3 mins and remove supernatant • 7. Then add 50 μl of resazurin (Sigma #R7017) (FAC 100 μM resazurin in RPMI medium without FBS) and incubate plates for a further 1-2 hrs at 37° C. and 5% CO2 • 8. Plates were read in an Envision reader at Ex 560 nm and Em 590 nm • 9. IC50 data is fitted to a non-linear regression equation (log inhibitor vs response-variable slope 4-parameters)
(Alamar Blue is a resazurin reagent that responds to reducing activity.)

pIC50: −log10 of the molar value. Where a name gives a salt, the structure may show the parent alone.

This note sets out measurements from US20220289766A1 (INFLAZOME LIMITED, priority 2019, published 2022).

T1 sequence (Q96P20 whole entry): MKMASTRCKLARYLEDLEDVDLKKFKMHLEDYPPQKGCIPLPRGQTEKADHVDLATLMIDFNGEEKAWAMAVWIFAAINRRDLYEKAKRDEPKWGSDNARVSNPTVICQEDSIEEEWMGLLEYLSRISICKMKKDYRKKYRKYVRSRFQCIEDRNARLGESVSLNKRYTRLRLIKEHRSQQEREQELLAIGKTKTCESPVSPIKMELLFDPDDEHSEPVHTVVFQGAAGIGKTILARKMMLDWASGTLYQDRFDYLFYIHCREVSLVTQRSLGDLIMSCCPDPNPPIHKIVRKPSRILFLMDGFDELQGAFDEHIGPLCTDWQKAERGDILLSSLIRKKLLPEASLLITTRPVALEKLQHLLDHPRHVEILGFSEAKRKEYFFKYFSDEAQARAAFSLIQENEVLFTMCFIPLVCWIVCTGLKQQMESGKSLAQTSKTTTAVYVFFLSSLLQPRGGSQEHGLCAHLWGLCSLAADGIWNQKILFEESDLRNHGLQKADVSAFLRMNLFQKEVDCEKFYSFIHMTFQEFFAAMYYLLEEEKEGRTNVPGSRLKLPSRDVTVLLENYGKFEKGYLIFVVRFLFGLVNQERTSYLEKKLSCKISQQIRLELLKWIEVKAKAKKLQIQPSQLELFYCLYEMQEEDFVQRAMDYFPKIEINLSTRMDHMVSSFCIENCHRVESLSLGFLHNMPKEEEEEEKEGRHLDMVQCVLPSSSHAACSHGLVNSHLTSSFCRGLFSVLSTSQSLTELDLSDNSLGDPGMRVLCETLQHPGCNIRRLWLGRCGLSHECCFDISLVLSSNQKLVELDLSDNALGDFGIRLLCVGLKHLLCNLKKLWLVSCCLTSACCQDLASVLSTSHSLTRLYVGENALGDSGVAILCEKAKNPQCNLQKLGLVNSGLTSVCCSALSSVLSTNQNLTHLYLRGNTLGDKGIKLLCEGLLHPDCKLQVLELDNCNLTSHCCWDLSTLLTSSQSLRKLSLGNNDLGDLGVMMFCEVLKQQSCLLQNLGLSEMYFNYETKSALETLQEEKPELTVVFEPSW

In general, pIC50 refers to −log10 of the IC50, conventionally taken in molar units. As for `CC(C)c1cnn2c1NC(=O)NS(=O)(=O)c1nn(cc1F)C(C)(C)COc1cc-2ccn1` [Example 47, 12-fluoro-15,15-dimethyl-5-(propan-2-yl)-17-oxa-10λ^6-thia-2,3,7,9,14,19,23-heptaazatetracyclo-[16.3.1.1^11,14.0^2,6]tricosa-1(21),3,5,11(23),12,18(22),19-heptaene-8,10,10-trione], the pIC50 at NLRP3 [1] and on NLRP3 [2] was 6.00 to 6.30 in each case.

As to `Cc1cnc2cc1-c1ccc3c(c1NC(=O)NS(=O)(=O)c1ccn(n1)C(C)(C)CO2)CCC3` [Example 33, 19,19,25-trimethyl-21-oxa-14λ^6-thia-11,13,18,23,27-pentaaza-pentacyclo-[20.3.1.1^15,18.0^2,10.0^5,9]-heptacosa-1(26),2,4,9,15(27),16,22,24-octaene-12,14,14-trione, sodium salt], the results for the pIC50 on NLRP3 [1] and against NLRP3 [2] were 5.30 to 6.00 and 6.00 to 6.30, respectively.

For the compound `O=C1Nc2c(ccc3c2CCC3)-c2ccnc(c2)O[C@H]2COC[C@@H]2n2ccc(n2)S(=O)(=O)N1` (racemic) [Example 35, (anti)-21,24-dioxa-14λ^6-thia-11,13,18,26,30-pentaazahexacyclo-[23.3.1.1^15,18.0^2,10.0^5,9.0^19,23]-triaconta-1(28),2,4,9,15(30),16,25(29),26-octaene-12,14,14-trione], the figures for the pIC50 on NLRP3 [1] and against NLRP3 [2] were 6.30 to 7.00 and at least 7.00, respectively.

In the case of `O=C1Nc2c(ccc3c2CCC3)-c2ccnc(c2)OCCc2cccc(c2)S(=O)(=O)N1` [Example 31, 22-oxa-14λ^6-thia-11,13,24-triaza-pentacyclo-[21.3.1.1^15,19.0^2,10.0^5,9]-octacosa-1(26),2,4,9,15(28),16,18,23(27),24-nonaene-12,14,14-trione, sodium salt], the pIC50 at NLRP3 [1] was 6.30 to 7.00; at NLRP3 [2], at least 7.00.

As to `Cc1cc2c(c3c1-c1ccnc(c1)OCC(C)(C)n1ccc(n1)S(=O)(=O)NC(=O)N3)CCO2` [Example 37, 3,19,19-trimethyl-6,21-dioxa-14λ^6-thia-11,13,18,23,27-pentaaza-pentacyclo[20.3.1.1^15,18.0^2,10.0^5,9]-heptacosa-1(25),2(10),3,5(9),15(27),16,22(26),23-octaene-12,14,14-trione, sodium salt], the pIC50 at NLRP3 [1] and against NLRP3 [2] was at least 7.00 in each case.

On to `O=C1Nc2c(ccc3c2CCC3)-c2ccnc(c2)OCCCOCc2cc(nn2C2CC2)S(=O)(=O)N1` [Example 15, 17-cyclopropyl-20,24-dioxa-14λ^6-thia-11,13,16,17,26-pentaazapentacyclo-[23.3.1.1^15,18.0^2,10.0^5,9]triaconta-1(28),2,4,9,15,18(30),25(29),26-octaene-12,14,14-trione], for which the pIC50 at NLRP3 [1] was 6.30 to 7.00; against NLRP3 [2], at least 7.00.

On to `O=C1Nc2c(ccc3c2CCC3)-c2ccnc(c2)OCCCCCCn2ccc(n2)S(=O)(=O)N1` [Example 5, 25-oxa-14λ^6-thia-11,13,18,27,31-pentaazapentacyclo-[24.3.1.1^15,18.0^2,10.0^5,9]hentriaconta-1(30),2(10),3,5(9),15(31),16,26,28-octaene-12,14,14-trione], for which the pIC50 at NLRP3 [1] is 5.30 to 6.00; against NLRP3 [2] it was 6.30 to 7.00.

In the case of `CN(C)Cc1cc2nn1CCCCCOc1cc(ccn1)-c1ccc3c(c1NC(=O)NS2(=O)=O)CCC3` [Example 17, 17-[(dimethylamino)-methyl]-24-oxa-14λ^6-thia-11,13,18,26,30-pentaazapentacyclo-[23.3.1.1^15,18.0^2,10.0^5,9]triaconta-1(28),2,4,9,15(30),16,25(29),26-octaene-12,14,14-trione], the figures for the pIC50 on NLRP3 [1] and against NLRP3 [2] were 6.00 to 6.30 and at least 7.00, respectively.

Turning to `O=C1Nc2c(ccc3c2CCC3)-c2ccnc(c2)OCCCCn2ccc(n2)S(=O)(=O)N1` [Example 4, 23-oxa-14λ^6-thia-11,13,18,25,29-pentaazapentacyclo-[22.3.1.1^15,18.0^2,10.0^5,9]nonacosa-1(28),2(10),3,5(9),15(29),16,24,26-octaene-12,14,14-trione], the negative-log IC50 (pIC50) is 6.00 to 6.30 on NLRP3 [1] and 6.30 to 7.00 at NLRP3 [2].

Take `Cc1cc2c(c3c1-c1ccnc(c1)OCC(C)(C)n1ccc(n1)S(=O)(=O)NC(=O)N3)CCC2` [Example 24, 3,19,19-trimethyl-21-oxa-14λ^6-thia-11,13,18,23,27-pentaazapentacyclo-[20.3.1.1^15,18.0^2,10.0^5,9]heptacosa-1(25),2(10),3,5(9),15(27),16,22(26),23-octaene-12,14,14-trione, Sodium Salt]: the pIC50 on NLRP3 [1] was 6.30 to 7.00; on NLRP3 [2], at least 7.00.

Turning to `O=C1Nc2c(ccc3c2CCC3)-c2ccnc(c2)OCCCCCS(=O)(=O)N1` [Example 19, 20-oxa-14λ^6-thia-11,13,22-triazatetracyclo-[19.3.1.0^2,10.0^5,9]triaconta-1(24),2,4,9,21(25),22-hexaene-12,14,14-trione], the pIC50 on NLRP3 [1] and against NLRP3 [2] was 6.00 to 6.30 in each case.

As for `O=C1Nc2c3c(cc4c2C(CCCCCn2ccc(n2)S(=O)(=O)N1)CC4)CCC3` (racemic) [Example 50, 5λ^6-thia-2,4,9,26-tetraazapentacyclo[13.9.1.1^6,9.0^18,25.0^20,24]hexacosa-1(24),6(26),7,18(25),19-pentaene-3,5,5-trione], the figures for the pIC50 at NLRP3 [1] and against NLRP3 [2] were 5.30 to 6.00 and 6.30 to 7.00, respectively.

`CC(C)c1cc(F)cc2c1NC(=O)NS(=O)(=O)c1ccn(n1)C(C)(C)COc1cc-2ccn1` [Example 43, 4-fluoro-16,16-dimethyl-6-(propan-2-yl)-18-oxa-11λ^6-thia-8,10,15,20,24-pentaazatetracyclo-[17.3.1.1^12,15.0^2,7]tetracosa-1(22),2(7),3,5,12(24),13,19(23),20-octaene-9,11,11-trione]: the pIC50 at NLRP3 [1] and against NLRP3 [2] was 6.30 to 7.00 each time.

As for `O=C1Nc2c(ccc3c2CCC3)-c2cccc(c2)OCCCCCn2ccc(n2)S(=O)(=O)N1` [Example 9, 24-oxa-14λ^6-thia-11,13,18,30-tetraazapentacyclo-[23.3.1.1^15,18.0^2,10.0^5,9]triaconta-1(28),2,4,9,15(30),16,25(29),26-octaene-12,14,14-trione], the negative-log IC50 (pIC50) was 5.30 to 6.00 on NLRP3 [1] and 6.00 to 6.30 against NLRP3 [2].

As for `CN1CCOc2cc(ccn2)-c2ccc3c(c2NC(=O)NS(=O)(=O)c2ccn(n2)C(C)(C)C1)CCC3` [Example 18, 19,19,21-trimethyl-24-oxa-14λ^6-thia-11,13,18,21,26,30-hexaazapentacyclo-[23.3.1.1^15,18.0^2,10.0^5,9]triaconta-1(28),2,4,9,15(30),16,25(29),26-octaene-12,14,14-trione], the pIC50 is 6.00 to 6.30 at NLRP3 [1] and 6.30 to 7.00 against NLRP3 [2].

`CN1CCCOc2cc(ccn2)-c2ccc3c(c2NC(=O)NS(=O)(=O)c2cc(n(C4CC4)n2)C1)CCC3` [Example 14, 17-cyclopropyl-20-methyl-24-oxa-14λ^6-thia-11,13,16,17,20, 26-hexaazapentacyclo-[23.3.1.1^15,18.0^2,10.0^5,9]triaconta-1(28),2,4,9,15,18(30),25(29),26-octaene-12,14,14-trione]: the pIC50 at NLRP3 [1] is 5.30 to 6.00; against NLRP3 [2], 6.30 to 7.00.
